Where two headings read alike, the source gives them in different places. Values belong to the compound of their own block, whether it stands above or below them.
Assays:
[1] = target: T1, ClpB NBD1-M (Thermus thermophilus, UniProt Q9RA63, R323A); experiment: fluorescence displacement titration against MANT-dADP; format: binding; settings: 2 µM protein, 50 mM Tris/HCl pH 7.5, 50 mM KCl, 5 mM MgCl2, 2 mM EDTA, 25 °C
T1 construct: expressed in E. coli BL21 (DE3) RIL; monomer/dimer equilibrium for the arginine mutants
Excerpt: (§1) fluorescence displacement titration against MANT-dADP on ClpB NBD1-M

[2] = target: T2, ClpB NBD1-M (Thermus thermophilus, UniProt Q9RA63, R322A); experiment: as above; format: binding; settings: 2 µM protein, 50 mM Tris/HCl pH 7.5, 50 mM KCl, 5 mM MgCl2, 2 mM EDTA, 25 °C
T2 construct: expressed in E. coli BL21 (DE3) RIL; monomer/dimer equilibrium for the arginine mutants
Excerpt: as §1

[3] = target: T3, ClpB NBD1-M (Thermus thermophilus, UniProt Q9RA63, R322A/R323A); experiment: as above; format: binding; settings: 2 µM protein, 50 mM Tris/HCl pH 7.5, 50 mM KCl, 5 mM MgCl2, 2 mM EDTA, 25 °C
T3 construct: expressed in E. coli BL21 (DE3) RIL; monomer/dimer equilibrium for the arginine mutants
Excerpt: as §1

[4] = target: T4, ClpB NBD1-M dimer with P221C/M394C disulfide crosslink (Thermus thermophilus, UniProt Q9RA63, P221C/M394C); experiment: as above; format: binding; settings: 2 µM protein, 50 mM Tris/HCl pH 7.5, 50 mM KCl, 5 mM MgCl2, 2 mM EDTA, 25 °C
T4 construct: NBD1-M (residues 141-534) covalent dimer linked by intermolecular disulfide between P221C of one subunit and M394C of the other; expressed in E. coli BL21 (DE3) RIL; one cross-linked and one free site; associates to tetramers with ATP
Excerpt: (§2) fluorescence displacement titration against MANT-dADP on ClpB NBD1-M dimer with P221C/M394C disulfide crosslink

[5] = target: T4, ClpB NBD1-M dimer with P221C/M394C disulfide crosslink; experiment: coupled colorimetric ATPase assay, Hill equation fit; format: biochemical; settings: 5 µM protein (monomer units); 50 mM Tris/HCl pH 7.5, 100 mM KCl, 10 mM MgCl2, 2 mM EDTA, 25 °C; kcat per monomer
Excerpt: coupled colorimetric ATPase assay, Hill equation fit on ClpB NBD1-M dimer with P221C/M394C disulfide crosslink

[6] = target: T5, ClpB NBD1-M dimer with P221C/M394C disulfide crosslink (Thermus thermophilus, UniProt Q9RA63, P221C/M394C, form not given); experiment: fluorescence displacement titration against MANT-dADP; format: binding; settings: read-out: KD(ATP); 2 µM protein; 50 mM Tris/HCl pH 7.5, 50 mM KCl, 5 mM MgCl2, 2 mM EDTA, 25 °C; ATP-regenerating system (phosphoenolpyruvate, pyruvate kinase)
T5 construct: NBD1-M (residues 141-534) covalent dimer linked by intermolecular disulfide between P221C of one subunit and M394C of the other; expressed in E. coli BL21 (DE3) RIL; one cross-linked and one free site; associates to tetramers with ATP
Excerpt: as §2

[7] = target: T1, ClpB NBD1-M; experiment: stopped-flow FRET kinetics (koff/kon); format: binding
Excerpt: (§3) stopped-flow FRET kinetics (koff/kon) on ClpB NBD1-M

[8] = target: T2, ClpB NBD1-M; experiment: stopped-flow FRET kinetics (koff/kon); format: binding
Excerpt: as §3

[9] = target: T3, ClpB NBD1-M; experiment: stopped-flow FRET kinetics (koff/kon); format: binding
Excerpt: as §3

[10] = target: T6, ClpB NBD1-M dimer with P221C/M394C disulfide crosslink (Thermus thermophilus, UniProt Q9RA63, M394C/P221C); experiment: stopped-flow FRET kinetics (koff/kon); format: binding; settings: read-out: KD "free"
T6 construct: NBD1-M (residues 141-534) covalent dimer linked by intermolecular disulfide between P221C of one subunit and M394C of the other; expressed in E. coli BL21 (DE3) RIL; one cross-linked and one free site; associates to tetramers with ATP
Excerpt: stopped-flow FRET kinetics (koff/kon) on ClpB NBD1-M dimer with P221C/M394C disulfide crosslink

[11] = read-out: KD(ATP), ATP-regenerating system (phosphoenolpyruvate, pyruvate kinase)

T4 sequence (Q9RA63 141-534 M394C): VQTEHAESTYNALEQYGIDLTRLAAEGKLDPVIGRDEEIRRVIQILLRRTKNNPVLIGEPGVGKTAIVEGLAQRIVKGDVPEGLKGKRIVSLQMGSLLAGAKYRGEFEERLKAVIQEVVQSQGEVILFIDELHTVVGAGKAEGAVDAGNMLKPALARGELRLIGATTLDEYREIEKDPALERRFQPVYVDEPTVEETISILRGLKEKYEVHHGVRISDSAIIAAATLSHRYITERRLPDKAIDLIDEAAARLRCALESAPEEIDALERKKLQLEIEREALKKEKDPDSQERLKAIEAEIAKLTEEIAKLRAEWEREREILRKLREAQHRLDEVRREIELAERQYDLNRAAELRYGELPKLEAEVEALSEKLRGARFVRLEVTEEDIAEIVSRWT
T4 sequence (Q9RA63 141-534 P221C): as the sequence (Q9RA63 141-534 M394C) above, with P81C, C254M counted along it
T2 sequence (Q9RA63 141-534 R322A): as the sequence (Q9RA63 141-534 M394C) above, with R182A, C254M counted along it
T3 sequence (Q9RA63 141-534 R322A/R323A): as the sequence (Q9RA63 141-534 M394C) above, with R182A, R183A, C254M counted along it
T1 sequence (Q9RA63 141-534 R323A): as the sequence (Q9RA63 141-534 M394C) above, with R183A, C254M counted along it
T6 sequence (Q9RA63 141-534 M394C): as the sequence (Q9RA63 141-534 M394C) above
T6 sequence (Q9RA63 141-534 P221C): as the sequence (Q9RA63 141-534 M394C) above, with P81C, C254M counted along it
T5 sequence (Q9RA63 141-534 M394C): as the sequence (Q9RA63 141-534 M394C) above
T5 sequence (Q9RA63 141-534 P221C): as the sequence (Q9RA63 141-534 M394C) above, with P81C, C254M counted along it

Kd ([1]; read-out: KD(ADP)): 10.2 ± 0.6 µM
Kd ([2]; read-out: KD(ADP)): 10.7 ± 0.6 µM
Kd ([3]; read-out: KD(ADP)): 0.0093 ± 0.0007 mM
Kd ([4]; read-out: KD(ADP)): 1.3 ± 0.1 µM
Compound: Nc1ncnc2c1ncn2[C@@H]1O[C@H](COP(=O)(O)OP(=O)(O)O)[C@@H](O)[C@H]1O [ADP]

Kd [1, 11]: 1040 ± 120 µM
Kd [2, 11]: 1670 ± 160 µM
Kd [3, 11]: 2.05 ± 0.18 mM
Km [5]: 162 ± 4 µM
Kd [6]: 438 ± 17 µM
Kd [4, 11]: 96 ± 11 µM
Compound: Nc1ncnc2c1ncn2[C@@H]1O[C@H](COP(=O)(O)OP(=O)(O)OP(=O)(O)O)[C@@H](O)[C@H]1O [ATP]

Kd [7]: 6.7 ± 0.2 µM
Kd [8]: 8.3 ± 0.4 µM
Kd [9]: 6.9 ± 0.2 µM
Kd [10]: 670 ± 40 nM
Compound: CNc1ccccc1C(=O)O[C@H]1C[C@H](n2cnc3c(N)ncnc32)O[C@@H]1COP(=O)(O)OP(=O)(O)O [MANT-dADP, 2′-deoxy-3′-O-(N′-methylanthraniloyl)adenosine-5′-O-diphosphate]

— publication PMC4239642, “trans-Acting Arginine Residues in the AAA+ Chaperone ClpB Allosterically Regulate the Activity through Inter- and Intradomain Communication” (The Journal of Biological Chemistry, 2014)
